Source: ChEMBL document CHEMBL4818987, “Recent advances of podophyllotoxin/epipodophyllotoxin hybrids in anticancer activity, mode of action, and structure-activity relationship: An update (2010-2020)” (Eur J Med Chem, 2020)
pIC50: −log10 of the molar value.

Columns and labels:
[1] = Cytotoxicity against human KBV cells by MTT assay; format: functional, cell-based
A549 [2] = assay: Antiproliferative activity against human A549 cells incubated for 48 hrs by MTT assay; format: functional, cell-based; settings: A549, 48 h
MCF7 [3] = assay: Antiproliferative activity against human MCF7 cells incubated for 48 hrs by MTT assay; format: functional, cell-based; settings: MCF7, 48 h
SW480 [4] = assay: Antiproliferative activity against human SW480 cells incubated for 48 hrs by MTT assay; format: functional, cell-based; settings: SW480, 48 h
SMMC-7721 [5] = assay: Antiproliferative activity against human SMMC-7721 cells incubated for 48 hrs by MTT assay; format: functional, cell-based; settings: SMMC-7721, 48 h
HL-60 = assay: Antiproliferative activity against human HL-60 cells incubated for 48 hrs by MTT assay; format: functional, cell-based; settings: HL-60, 48 h
SMMC-7721 [6] = assay: Potency index, ratio of cisplatin IC50 to test compound IC50 for antiproliferative activity against human SMMC7721 cells; format: functional
A549 [7] = assay: Potency index, ratio of cisplatin IC50 to test compound IC50 for antiproliferative activity against human A549 cells; format: functional
MCF7 [8] = assay: Potency index, ratio of cisplatin IC50 to test compound IC50 for antiproliferative activity against human MCF7 cells; format: functional
SW480 [9] = assay: Potency index, ratio of cisplatin IC50 to test compound IC50 for antiproliferative activity against human SW480 cells; format: functional
A549 [10] = assay: Antiproliferative activity against human A549 cells incubated for 24 hrs by MTT assay; format: functional, cell-based; settings: A549, 24 h
HeLa [11] = assay: Antiproliferative activity against human HeLa cells incubated for 24 hrs by MTT assay; format: functional, cell-based
[12] = Selectivity ratio of IC50 for human L02 cells to IC50 for human Calu-1 cells; format: toxicity; settings: L02 cells / Calu-1 cells, read-out: Ratio IC50
[13] = Selectivity ratio of IC50 for human L02 cells to IC50 for human HeLa cells; format: toxicity; settings: read-out: Ratio IC50
[14] = Selectivity ratio of IC50 for African green monkey Vero cells to IC50 for human A549 cells; format: toxicity; settings: read-out: Ratio IC50
[15] = Selectivity ratio of IC50 for African green monkey Vero cells to IC50 for human Calu-1 cells; format: toxicity; settings: Vero cells / Calu-1 cells, read-out: Ratio IC50
Calu-1 = assay: Antiproliferative activity against human Calu-1 cells incubated for 24 hrs by MTT assay; format: functional, cell-based; settings: Calu-1, 24 h
[16] = Selectivity ratio of IC50 for African green monkey Vero cells to IC50 for human HeLa cells; format: toxicity; settings: read-out: Ratio IC50
Vero = assay: Cytotoxicity against African green monkey Vero cells; format: cell-based; settings: Chlorocebus sabaeus
L02 [17] = assay: Cytotoxicity against human L02 cells; format: cell-based
[18] = Selectivity ratio of IC50 for human L02 cells to IC50 for human A549 cells; format: toxicity; settings: read-out: Ratio IC50
HeLa [19] = assay: Cytotoxicity against human HeLa cells by MTT assay; format: functional, cell-based
K562 [20] = assay: Cytotoxicity against human K562 cells by MTT assay; format: functional, cell-based
K562/A02 [21] = assay: Cytotoxicity against human K562/A02 cells by MTT assay; format: functional, cell-based
[22] = Resistance index, ratio of IC50 for human K562/AO2 cells to IC50 for human K562 cells; format: functional
HepG2 = assay: Antiproliferative activity against human HepG2 cells incubated for 48 hrs by MTT assay; format: functional, cell-based; settings: HepG2, 48 h
BGC-823 = assay: Antiproliferative activity against human BGC-823 cells incubated for 48 hrs by MTT assay; format: functional, cell-based; settings: BGC-823, 48 h
MCF7 [23] = assay: Antiproliferative activity against human MCF7 cells incubated for 24 hrs by MTT assay; format: functional, cell-based; settings: MCF7, 24 h
[24] = Cytotoxicity against PBMC (unknown origin) incubated for 24 hrs by CCK8 assay
L02 [25] = assay: Cytotoxicity against human L02 cells incubated for 24 hrs by CCK8 assay; format: functional, cell-based; settings: L02, 24 h
L02 [26] = assay: Cytotoxicity against human HL7702 cells incubated for 48 hrs by MTT assay; format: cell-based; settings: L02, 48 h
K562 [27] = assay: Cytotoxicity against human K562 cells by SRB assay; format: functional, cell-based
K562/A02 [28] = assay: Cytotoxicity against human K562/A02 cells by SRB assay; format: functional, cell-based
KB = assay: Cytotoxicity against human KB cells by MTT assay; format: functional, cell-based
[29] = Cytotoxicity against human MUM-2B cells incubated for 72 hrs by CCK8 assay; format: functional, cell-based
[30] = Cytotoxicity against human C918 cells incubated for 72 hrs by CCK8 assay; format: functional, cell-based; settings: C918, 72 h

Row | Structure (SMILES) | pIC50 (A549 [10]) | pIC50 (HeLa [11]) | selectivity ratio [12] | selectivity ratio [13] | selectivity ratio [14] | selectivity ratio [15] | pIC50 (Calu-1) | selectivity ratio [16] | pIC50 (Vero) | pIC50 (L02 [17]) | selectivity ratio [18] | further results
1 | CC[C@]1(O)C[C@H]2CN(CCc3c([nH]c4ccccc34)[C@@](C(=O)OC)(c3cc4c(cc3OC)N(C=O)[C@H]3[C@@](O)(C(=O)OC)[C@H](OC(C)=O)[C@]5(CC)C=CCN6CC[C@]43[C@@H]65)C2)C1 [VINCRISTINE] |  |  |  |  |  |  |  |  |  |  |  | pIC50 [1]: 4.30
2 | CCCC(=O)O[C@@H]1[C@@H](OC(=O)CCC)[C@@H](O[C@@H]2c3cc4c(cc3[C@@H](c3cc(OC)c(OC)c(OC)c3)[C@H]3C(=O)OC[C@@H]32)OCO4)OC[C@H]1OC(=O)CCC |  |  |  |  |  |  |  |  |  |  |  | pIC50 (A549 [2]): < 5.54; pIC50 (MCF7 [3]): < 5.54; pIC50 (SW480 [4]): < 5.54; pIC50 (SMMC-7721 [5]): < 5.54; pIC50 (HL-60): 6.85; Ratio IC50 (SMMC-7721 [6]): 1.9; Ratio IC50 (A549 [7]): 1.9; Ratio IC50 (MCF7 [8]): 1.9; Ratio IC50 (SW480 [9]): 1.9
3 | COc1cc([C@@H]2c3cc4c(cc3[C@H](OC(=O)CCCCC3CCSC(c5ccc(C(F)(F)F)cc5)S3)[C@H]3COC(=O)[C@H]23)OCO4)cc(OC)c1OC (stereo partly drawn) | 5.57 | 5.57 | ≥ 9.7 | ≥ 9.7 | ≥ 9.7 | ≥ 9.7 | 5.57 | ≥ 9.7 | < 4.03 | < 4.03 | ≥ 9.7 | 
4 | COc1cc([C@@H]2c3cc4c(cc3[C@@H](c3c[nH]c5ccc(OCc6ccc(C(C)(C)C)cc6)cc35)[C@H]3COC(=O)[C@H]23)OCO4)cc(OC)c1OC |  |  |  |  |  |  |  |  |  |  |  | pIC50 (HeLa [19]): < 6.59; pIC50 (K562 [20]): < 6.59; pIC50 (K562/A02 [21]): 6.54; Ratio IC50 [22]: 0.004
5 | COc1cc([C@@H]2c3cc4c(cc3[C@H](O)[C@H]3COC(=O)[C@H]23)OCO4)cc(OC)c1OC [PODOFILOX] | 5.67 | 5.67 |  |  |  |  | 5.57 |  | 5.98 | 5.50 |  | pIC50 (A549 [2]): 5.37; pIC50 (HepG2): 5.37; pIC50 (BGC-823): 5.37; pIC50 (MCF7 [23]): 5.67; pIC50 [24]: 5.30; pIC50 (L02 [25]): 5.53; pIC50 (L02 [26]): 5.37
6 | COC(=O)c1cccc2c1c(C(=O)C(=O)N[C@@H]1c3cc4c(cc3[C@@H](c3cc(OC)c(OC)c(OC)c3)[C@H]3C(=O)OC[C@@H]31)OCO4)cn2C(=O)c1ccccc1 |  |  |  |  |  |  |  |  |  |  |  | pIC50 (K562 [27]): 6.82; pIC50 (K562/A02 [28]): 6.82; pIC50 (HeLa [19]): 6.82; pIC50 (KB): 5.50; pIC50 [1]: 6.82
7 | COc1cc([C@@H]2c3cc4c(cc3[C@H](OC(=O)CCCCC3CCSC(c5ccc(C)cc5)S3)[C@H]3COC(=O)[C@H]23)OCO4)cc(OC)c1OC (stereo partly drawn) | 5.57 | 5.57 | ≥ 9.7 | ≥ 9.7 | ≥ 9.7 | ≥ 9.7 | 5.57 | ≥ 9.7 | < 4.03 | < 4.03 | ≥ 9.7 | 
8 | COc1cc([C@@H]2c3cc4c(cc3[C@H](OC(=O)CCCCC3CCSC(c5cccc(C(F)(F)F)c5)S3)[C@H]3COC(=O)[C@H]23)OCO4)cc(OC)c1OC (stereo partly drawn) | 5.57 | 5.57 | ≥ 9.7 | ≥ 9.7 | ≥ 9.7 | ≥ 9.7 | 5.57 | ≥ 9.7 | < 4.03 | < 4.03 | ≥ 9.7 | 
9 | COc1cc([C@@H]2c3cc4c(cc3[C@@H](NC(=O)C(=O)c3c[nH]c5ccc(C(=O)NC(C)C)cc35)[C@H]3COC(=O)[C@H]23)OCO4)cc(OC)c1OC |  |  |  |  |  |  |  |  |  |  |  | pIC50 (K562 [20]): 5.90; pIC50 (K562/A02 [21]): 5.90
10 | COc1cc(/C=C/c2ccc(OCCC(=O)O[C@H]3c4cc5c(cc4[C@@H](c4cc(OC)c(OC)c(OC)c4)[C@H]4C(=O)OC[C@@H]43)OCO5)cc2)cc(OC)c1 |  |  |  |  |  |  |  |  |  |  |  | pIC50 [29]: 7.09; pIC50 [30]: 7.09
